Test results published in ChEMBL document CHEMBL3832761, “MMV Pathogen Box Bioactivity Data” (2017).

Key:
Plasmodium falciparum [1] = test: Antimalarial activity: Asexual Blood Stage Plasmodium falciparum 3D7 IC50 (uM); format: functional, organism-based
Plasmodium berghei [2] = test: Antimalarial activity: Liver Stage Plasmodium berghei sporozoite Luciferase assay: inhibition at 10 uM (%); format: functional
Trypanosoma cruzi = test: AntiTrypanosoma cruzi activity IC50 (uM); format: functional, organism-based
Trypanosoma brucei [3] = test: AntiTrypanosoma brucei activity T. b. brucei IC50 (uM); format: functional, organism-based
Trypanosoma brucei [4] = test: AntiTrypanosoma brucei activity T. b. rhodesiense IC50 (uM); format: functional, organism-based
Leishmania infantum = test: AntiLeishmania activity L. infantum (macrophages) IC50 (uM); format: functional, organism-based
MRC5 = test: MRC5 CC50 (uM) Cytotoxicity; format: functional; conditions: Homo sapiens
[5] = PMM CC50 (uM) Cytotoxicity; format: functional; conditions: Macrophage
Plasmodium falciparum [6] = test: Antimalarial activity: Asexual Blood Stage Plasmodium falciparum Dd2 IC50 (uM); format: functional, organism-based
Plasmodium falciparum [7] = test: Antimalarial activity: Asexual Blood Stage Plasmodium falciparum W2 IC50 (uM); format: functional, organism-based
Plasmodium berghei [8] = test: Antimalarial activity: Liver Stage Plasmodium berghei sporozoite Luciferase assay IC50 (uM); format: functional, organism-based
Plasmodium falciparum [9] = test: Antimalarial activity: Gametocytes Plasmodium falciparum NF54 Gametocytes Stage V: inhibition at 10 uM (%); format: functional
HepG2 [10] = test: Cytotoxicity data HepG2 CC20 (uM); format: functional
HepG2 [11] = test: HepG2 CC50 (uM) Cytotoxicity; format: functional; conditions: Homo sapiens

Row | Structure (SMILES) | IC50 (Plasmodium falciparum [1]) | Inhibition (Plasmodium berghei [2]) | IC50 (Trypanosoma cruzi) | IC50 (Trypanosoma brucei [3]) | IC50 (Trypanosoma brucei [4]) | IC50 (Leishmania infantum) | CC50 (MRC5) | CC50 [5] | IC50 (Plasmodium falciparum [6]) | IC50 (Plasmodium falciparum [7]) | IC50 (Plasmodium berghei [8]) | Inhibition (Plasmodium falciparum [9]) | CC20 (HepG2 [10]) | CC50 (HepG2 [11])
1 | CO/N=C(\C(=O)OC)c1ccccc1CO/N=C(\C)c1cccc(C(F)(F)F)c1 | 300 nM | 100% | 1940 nM | 33600 nM | 26200 nM | > 64000 nM | > 64000 nM | > 64000 nM |  |  |  |  |  | 
2 | CC1COC(Cn2cncn2)(c2ccc(Oc3ccc(Cl)cc3)cc2Cl)O1 (stereo unspecified) [DIFENOCONAZOLE] |  | 85% | 10 nM | 32500 nM | 26200 nM | 44700 nM | 30900 nM | > 64000 nM |  |  |  |  |  | 
3 | O=C(Nc1ccc(N2CCNCC2)nc1)c1oc(-c2ccccc2)nc1C(F)(F)F | 1220 nM | 78% |  |  |  |  |  |  | 1640 nM | 3000 nM | 2550 nM | 44% | 13400 nM | > 10000 nM
4 | NS(=O)(=O)c1cncc(-c2ccc3nccc(-c4cn[nH]c4)c3n2)c1 | 600 nM | 96% |  |  |  |  |  |  | 630 nM | 730 nM | 2170 nM | 70% | 490 nM | 
5 | Cc1c[nH]c(CCNC(=O)c2cc(-c3ccc(Cl)cc3)cs2)n1 | 810 nM | 85% |  |  |  |  |  |  | 2020 nM | 2860 nM | 8570 nM | 15% | 6900 nM | > 10000 nM
6 | Clc1cccc(C(c2ccc(CN3CCNCC3)cc2)n2ccnc2)c1 (stereo unspecified) | 1630 nM | 83% |  |  |  |  |  |  | 1530 nM | 1360 nM | > 10000 nM | 36% | 15200 nM | > 10000 nM
7 | Cc1ccc(S(=O)(=O)N2CCN(C(=O)c3cc(-c4ccccc4)n[nH]3)CC2)cc1 | 1040 nM | 92% |  |  |  |  |  |  | 1730 nM | 400 nM | 630 nM | 17% | >80000 nM | > 10000 nM
8 | Cc1cc(C)n2nc(C(=O)Nc3cc(C(F)(F)F)ccc3N3CCOCC3)nc2n1 | 220 nM | 88% |  |  |  |  |  |  | 220 nM | 70 nM | 1210 nM | 4% | >80000 nM | > 10000 nM
9 | C[C@H](C(N)=O)N1CCCC[C@@H]1c1ccc(OCc2cccc(F)c2)cc1 |  | 99% |  |  |  |  |  |  |  |  | 1770 nM | 5% | 21800 nM | > 10000 nM
10 | O=C1Nc2ccc(Br)cc2C12NCCc1c2[nH]c2ccccc12 (stereo unspecified) | 510 nM | 57% |  |  |  |  |  |  | 410 nM | 620 nM | > 10000 nM | 38% | 19900 nM | > 10000 nM
11 | CC(C)(C)C(O)C(Oc1ccc(-c2ccccc2)cc1)n1cncn1 (stereo unspecified) [BITERTANOL] |  | 46% | 60 nM | 32900 nM | 28000 nM | > 64000 nM | > 64000 nM | > 64000 nM |  |  |  |  |  | 
12 | C[C@H](C(N)=O)N1CCCC[C@H]1c1ccc(OCc2cccc(F)c2)cc1 | > 2000 nM | 95% |  |  |  |  |  |  | > 2000 nM |  | 1360 nM | 0% | >80000 nM | > 10000 nM
13 | c1csc(-c2cnc3sc(NCC4CCOCC4)nn23)c1 | 1370 nM | 58% |  |  |  |  |  |  | 1110 nM |  | > 10000 nM | 18% | 30000 nM | > 10000 nM
14 | O=C(Nc1cccc(Cl)c1)c1cnc(N2CCN(c3ccncc3)CC2)c(Cl)c1 | 830 nM | 99% |  |  |  |  |  |  | 1330 nM | 1550 nM | 2350 nM | 51% | 2680 nM | > 10000 nM
15 | FC(F)(F)c1cccc(-c2nc3c(NCc4ccncc4)nccc3[nH]2)c1 | 510 nM | 62% |  |  |  |  |  |  | 780 nM | 1040 nM | > 10000 nM | 11% | 14600 nM | > 10000 nM
16 | O=C(NC1CC1)c1ccc(N2CCC(Cc3ccccc3)CC2)nc1 | 1330 nM | 100% |  |  |  |  |  |  | 1670 nM | 820 nM | 1410 nM | 28% | >80000 nM | > 10000 nM
17 | Cc1ccc(Oc2ccc(NC(=O)CNc3ccccc3N3CCCC3=O)cc2)cc1 | 480 nM | 89% |  |  |  |  |  |  | 600 nM | 640 nM | 9100 nM | 0% | 17500 nM | 9800 nM
18 | Cc1ccc(NC(=O)c2cc(S(=O)(=O)NC(C)(C)C)ccc2C)nc1 | 930 nM | 82% |  |  |  |  |  |  | 2510 nM | 1180 nM | 7350 nM | 2% | >80000 nM | > 7500 nM
